Measurements from patent US9834526B2 (MERCK SHARP & DOHME CORP., priority 2013, dated 2017).
pIC50: −log10 of the molar value.

These compounds were tested against T1, wildtype HIV-1 protease (Human immunodeficiency virus type 1 group M subtype B, UniProt P04585) (assay: Inhibition of microbial expressed HIV protease (Pepcleav)). Settings: wild type HIV-1 protease expressed in E. coli, 20 pM enzyme, 400 micromolar peptide substrate, pH 5.5, LC-MS readout; mean of at least two independent experiments.
T1 construct: preincubated with the HIV-1 protease (wild type) enzyme in assay buffer; made in house; host or cells: Escherichia coli
Format: biochemical
Outline: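 E. coli-expressed wild-type enzyme, 20 pM final, preincubated with inhibitor for 30 min at room temperature in 50 mM sodium acetate pH 5.5, 100 mM NaCl, 0.1% BSA. Reaction ran 1 h at 30 °C with 400 μM Val-Ser-Gln-Asn-(β-naphthyl)Ala-Pro-Ile-Val, then was quenched with formic acid. Cleavage product quantified by LC-MS/MS peak area, with indinavir as internal standard.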
For `COC(=O)N[C@H](C(=O)Nc1ccccc1CC[C@@H]1CN[C@H](COCc2ccccc2)[C@@H](CO)O1)C(c1ccccc1)c1ccccc1` [Example 42, N-(2-{2-[(2R,5R,6S)-5-[(benzyloxy)methyl]-6-(hydroxymethyl)morpholin-2-yl]ethyl}phenyl)-Nα-(methoxycarbonyl)-β-phenyl-L-phenylalaninamide], the pIC50 was 7.10. With `COC(=O)N[C@H](C(=O)Nc1ccccc1CC[C@@H]1CN[C@H](C)[C@@H](CSc2nc(N)c3cn[nH]c3n2)O1)C(c1ccccc1)c1ccccc1` [Example 25, methyl N-[(1S)-1-[[2-[2-[(2R,5R,6S)-6-[(4-amino-1H-pyrazolo[3,4-d]pyrimidin-6-yl)sulfanylmethyl]-5-methyl-morpholin-2-yl]ethyl]phenyl]carbamoyl]-2,2-diphenyl-ethyl]carbamate] the pIC50 was 7.00. Work on `COC(=O)N[C@H](C(=O)Nc1ccccc1CC[C@@H]1CN[C@H](C)[C@@H](CSc2nnc(CN3CCCC3)o2)O1)C(c1ccccc1)c1ccccc1` [Example 26, methyl N-[(1S)-1-benzhydryl-2-[[2-[2-[(2R,5R,6S)-5-methyl-6-[[5-(pyrrolidin-1-ylmethyl)-1,3,4-oxadiazol-2-yl]sulfanylmethyl]morpholin-2-yl]ethyl]phenyl]amino]-2-oxo-ethyl]carbamate] yielded a pIC50 of 6.91. With `C[C@H]1O[C@H](CCc2c(F)cncc2NC(=O)[C@@H](N)C(c2ccc(F)cc2)c2ccc(F)cc2)CN[C@@H]1COC(=O)NCC(F)(F)F` [Example 57, 4-fluoro-N-(5-fluoro-4-{2-[(2R,5R,6R)-6-methyl-5-({[(2,2,2-trifluoroethyl)carbamoyl]oxy}methyl)morpholin-2-yl]ethyl}pyridin-3-yl)-β-(4-fluorophenyl)-L-phenylalaninamide] the pIC50 was 7.23. With `C[C@@H]1O[C@H](CCc2c(F)cccc2NC(=O)[C@@H](N)C(c2ccc(F)cc2)c2ccc(F)cc2)CN[C@@H]1COC(=O)N[C@@H](C)C(F)(F)F` [Example 37, 4-fluoro-N-[3-fluoro-2-(2-{(2R,5R,6S)-6-methyl-5-[({[(1S)-2,2,2-trifluoro-1-methylethyl]carbamoyl}oxy)methyl]morpholin-2-yl}ethyl)phenyl]-β-(4-fluorophenyl)-L-phenylalaninamide] the pIC50 was 8.51. In the case of `COC(=O)N[C@H](C(=O)Nc1ccccc1CC[C@@H]1CN[C@H](CO)[C@@H](CSc2nnc(-c3ccncc3)o2)O1)C(c1ccccc1)c1ccccc1` [Example 31, N-(2-{2-[(2R,5R,6S)-5-(hydroxymethyl)-6-({[5-(pyridin-4-yl)-1,3,4-oxadiazol-2-yl]sulfanyl}methyl)morpholin-2-yl]ethyl}phenyl)-Nα-(methoxycarbonyl)-β-phenyl-L-phenylalaninamide], the pIC50 was 9.77. Compound `COC(=O)N[C@H](C(=O)Nc1ccccc1CC[C@@H]1CN[C@H](C)[C@@H](CSc2ncnc3[nH]ncc23)O1)C(c1ccccc1)c1ccccc1` [Example 10, methyl N-[(1S)-1-benzhydryl-2-[[2-[2-[(2R,5R,6S)-5-methyl-6-(1H-pyrazolo[3,4-d]pyrimidin-4-ylsulfanylmethyl)morpholin-2-yl]ethyl]phenyl]amino]-2-oxo-ethyl]carbamate] has a pIC50 of 8.03. `COC(=O)N[C@H](C(=O)Nc1ccccc1CC[C@@H]1CN[C@H](C)[C@@H](CSc2ncnc3c2cnn3C)O1)C(c1ccccc1)c1ccccc1` [Example 11, methyl N-[(1S)-1-benzhydryl-2-[[2-[2-[(2R,5R,6S)-5-methyl-6-[(1-methylpyrazolo[3,4-d]pyrimidin-4-yl)sulfanylmethyl]morpholin-2-yl]ethyl]phenyl]amino]-2-oxo-ethyl]carbamate] showed a pIC50 of 7.93. `CC(C)[C@@H](NC(=O)OC[C@H]1NC[C@@H](CCc2c(F)cccc2NC(=O)[C@@H](N)C(c2ccc(F)cc2)c2ccc(F)cc2)O[C@H]1C)c1ccc(F)cc1` [Example 58, 4-fluoro-N-[3-fluoro-2-(2-{(2R,5R,6S)-5-[({[(1R)-1-(4-fluorophenyl)-2-methylpropyl]carbamoyl}oxy)methyl]-6-methylmorpholin-2-yl}ethyl)phenyl]-β-(4-fluorophenyl)-L-phenylalaninamide] showed a pIC50 of 8.16. With `COC(=O)N[C@H](C(=O)Nc1ccccc1CC[C@@H]1CN[C@H](C)[C@@H](CSc2nc3ccc(Cl)nc3s2)O1)C(c1ccccc1)c1ccccc1` [Example 21, methyl N-[(1S)-1-benzhydryl-2-[[2-[2-[(2R,5R,6S)-6-[(5-chlorothiazolo[5,4-b]pyridin-2-yl)sulfanylmethyl]-5-methyl-morpholin-2-yl]ethyl]phenyl]amino]-2-oxo-ethyl]carbamate] the pIC50 was 7.35. `COC(=O)N[C@H](C(=O)Nc1ccccc1CC[C@@H]1CN[C@H](C)[C@@H](CSc2nncs2)O1)C(c1ccccc1)c1ccccc1` [Example 13, methyl N-[(1S)-1-benzhydryl-2-[[2-[2-[(2R,5R,6S)-5-methyl-6-(1,3,4-thiadiazol-2-ylsulfanylmethyl)morpholin-2-yl]ethyl]phenyl]amino]-2-oxo-ethyl]carbamate] gave a pIC50 of 7.90. `COC(=O)N[C@H](C(=O)Nc1ccccc1CC[C@@H]1CN[C@H](C)[C@@H](CSc2nc[nH]n2)O1)C(c1ccccc1)c1ccccc1` [Example 24, methyl N-[(1S)-1-benzhydryl-2-[[2-[2-[(2R,5R,6S)-5-methyl-6-(1H-1,2,4-triazol-3-ylsulfanylmethyl)morpholin-2-yl]ethyl]phenyl]amino]-2-oxo-ethyl]carbamate] was tested, and the pIC50 was 7.23. With `C[C@@H]1O[C@H](CCc2c(F)cncc2NC(=O)[C@@H](N)C(c2ccc(F)cc2)c2ccc(F)cc2)CN[C@@H]1COC(=O)NCC(F)(F)F` [Example 54, 4-fluoro-N-(5-fluoro-4-{2-[(2R,5R,6S)-6-methyl-5-({[(2,2,2-trifluoroethyl)carbamoyl]oxy}methyl)morpholin-2-yl]ethyl}pyridin-3-yl)-β-(4-fluorophenyl)-L-phenylalaninamide] the pIC50 was 7.52. Work on `COC(=O)N[C@H](C(=O)Nc1ccccc1CC[C@@H]1CN[C@H](C)[C@@H](C[S@@+]([O-])c2ccc(Cl)cc2)O1)C(c1ccccc1)c1ccccc1` [Example 41, N-(2-{2-[(2R,5R,6S)-6-{[(R)-(4-chlorophenyl)sulfinyl]methyl}-5-methylmorpholin-2-yl]ethyl}phenyl)-Nα-(methoxycarbonyl)-β-phenyl-L-phenylalaninamide] yielded a pIC50 of 6.05. Work on `CC[C@@H](NC(=O)OC[C@H]1NC[C@@H](CCc2c(F)cccc2NC(=O)[C@@H](N)C(c2ccc(F)cc2)c2ccc(F)cc2)O[C@H]1C)c1ccc(F)cc1` [Example 38, 4-fluoro-N-[3-fluoro-2-(2-{(2R,5R,6S)-5-[({[(1R)-1-(4-fluorophenyl)propyl]carbamoyl}oxy)methyl]-6-methylmorpholin-2-yl}ethyl)phenyl]-β-(4-fluorophenyl)-L-phenylalaninamide] yielded a pIC50 of 8.36. With `C[C@H]1O[C@H](COc2c(F)cncc2NC(=O)[C@@H](N)C(c2ccc(F)cc2)c2ccc(F)cc2)CN[C@@H]1COC(=O)NCC(F)(F)F` [Example 51, 4-fluoro-N-(5-fluoro-4-{[(2S,5R,6R)-6-methyl-5-({[(2,2,2-trifluoroethyl)carbamoyl]oxy}methyl)morpholin-2-yl]methoxy}pyridin-3-yl)-β-(4-fluorophenyl)-L-phenylalaninamide] the pIC50 was 7.11. For `C[C@H]1O[C@H](COc2c(F)cncc2NC(=O)[C@@H](N)C(c2ccc(F)cc2)c2ccc(F)cc2)CN[C@@H]1COC(N)=O` [Example 52, N-[4-({(2S,5R,6R)-5-[(carbamoyloxy)methyl]-6-methylmorpholin-2-yl}methoxy)-5-fluoropyridin-3-yl]-4-fluoro-β-(4-fluorophenyl)-L-phenylalaninamide], the pIC50 was 7.28. `COC(=O)N[C@H](C(=O)Nc1ccccc1CC[C@@H]1CN[C@H](C)[C@@H](CSc2ncccc2Cl)O1)C(c1ccccc1)c1ccccc1` [Example 3, N-(2-{2-[(2R,5R,6S)-6-{[(3-chloropyridin-2-yl)sulfanyl]methyl}-5-methylmorpholin-2-yl]ethyl}phenyl)-Nα-(methoxycarbonyl)-β-phenyl-L-phenylalaninamide] showed a pIC50 of 8.12.
